According to paper PMC5390903, “Influence of drug transporters and stereoselectivity on the brain penetration of pioglitazone as a potential medicine against Alzheimer's disease” (Scientific Reports, 2015):
One block for each compound: values may come before it.

Tests used:
in vivo = settings: 30 mg/kg
Method: Our established UPLC-MS/MS method was used to quantify pioglitazone concentrations in plasma and brain samples harvested at different time points (1, 2, 4, 6, and 8 hours) after mice were given either racemic pioglitazone or (+)-pioglitazone.
Error bar represents one SD.
A total of forty mice were split into two treatment groups (n = 20), with one group receiving a single dose of the racemic pioglitazone (30 mg/kg, p.o.) and another group receiving the purified (+)-pioglitazone (30 mg/kg, p.o.). Both compounds were dissolved in Milli-Q water using 1% DMSO as co-solvent. Following oral administration of the test compounds, mice from both treatment groups were split again into five subgroups (n = 4), and mice belonging to different subgroups were sacrificed at different time points (1 hour, 2 hours, 4 hours, 6 hours, and 8 hours after oral dosing). All mice were sacrificed by CO2 euthanasia and blood samples were taken via cardiac puncture. Blood samples were then centrifuged at 4000 g (10 minutes) to collect the plasma. Whole brains were collected following transcardial perfusion with saline to remove blood from organs. […] Pioglitazone concentrations versus time graphs were constructed for both brain and plasma samples, and area under curve (AUC) for both (+)-pioglitazone and racemic pioglitazone were then used to assess each tissue's exposure to pioglitazone. AUC was calculated from time 0 hour to infinity (AUC0–∞) for both types of samples using the trapezoidal rule. Comparisons of pioglitazone concentrations in different sample matrices between the two treatment groups were performed using two-tailed independent t-test with Welch's correction, and statistical significance was defined as P < 0.05.

CHO-APP695 cells = test: Extracellular amyloid-β42 lowering in CHO-APP695 (sandwich ELISA); type: cell-based, Chinese hamster; settings: 48 hours; for effect on increase in extracellular amyloid-β42: 10 μM, versus non-treated CHO-APP695
Method: Figure 4 Extracellular amyloid-β42 levels in culture media samples harvested from both CHO-WT and treated or non-treated CHO-APP695 following 48 hours of post-seeding incubation.
CHO (Chinese hamster ovary) cells stably transfected with mouse APP 695 (CHO-APP695) were used as the AD in vitro model in this experiment. CHO-APP695 and the wild type (CHO-WT) were kindly provided by G. S. Dawe (National University of Singapore, Singapore). Both cell lines were incubated at 37°C in the presence of 5% CO2 for all cell culture work. Cell lines were maintained in DMEM culture medium (Sigma D1152) containing 10% FBS and supplemented with 100 units/mL of penicillin and 100 μg/mL of streptomycin.
When cells were used for experiments, both CHO-APP695 and CHO-WT were standardised at third passage and harvested for seeding when the cells were at log-phase growth. Cells were seeded (n = 7) on 24-well cell culture plates at 1 × 10^5 cells/well in 0.5 mL of culture medium. To evaluate amyloid-lowering effects of (+)-pioglitazone and racemic pioglitazone on extracellular amyloid-β42 levels, additional groups (n = 7) of CHO-APP695 treated with (+)-pioglitazone, (+)-pioglitazone + T007, racemic pioglitazone, and racemic pioglitazone + T007 were also seeded. […] Upon completion of seeding after 24 hours, the culture medium in each well was replaced with 0.5 mL of fresh medium. Seeded cells were incubated further for 48 hours before the culture medium was individually harvested. Harvested samples were briefly centrifuged (800 g) for 5 minutes at 4°C before supernatants were transferred into clean 1.8-mL cryogenic vials and snap frozen in liquid nitrogen. All harvested samples were stored at −80°C until analysis.
Amyloid-β42 levels in culture media were harvested 48 hours after seeding incubation and were quantitatively measured using colorimetric sandwich ELISA kits according to the protocols provided by the manufacturer (#SIG-38954 and #SIG-38956 from Covance, Princeton, NJ). […] All absorbance readings were measured using a Tecan Infinite M200 microplate reader (Tecan, Switzerland).

BCRP = test system: BCRP; set-up: method as in PMID 22828996; settings: 5 mg/kg; mice; cited from earlier work
[1] = In vivo investigation of P-gp and BCRP contributions to limited brain penetration of pioglitazone (brain-to-plasma ratio after transporter inhibitor pre-treatment); settings: C57BL/6, mouse, in vivo, 30 mg/kg
Method: (§1) All animals were pre-treated with the respective drug transporter inhibitor(s) 30 minutes before administration of pioglitazone. Thirty minutes after treatment with pioglitazone, all animals were sacrificed and plasma and brain samples were collected. […] The brain-to-plasma ratios of pioglitazone concentrations were used to assess penetration of brain tissue.
(§2) Figure 1 All animals were pre-treated with either the vehicle or the respective drug-transporter inhibitor (n = 6 for each treatment group) 30 minutes prior to drug treatment. Plasma and brain samples were then collected from the animals 30 minutes after pioglitazone treatment. (A) Pioglitazone levels in plasma samples harvested from mice given i.p. pioglitazone with or without pre-treatment of LY335979 (P-gp blocker) and/or Ko143 (BCRP blocker). (B) Brain-to-plasma ratios of pioglitazone concentrations calculated for each mouse given i.p. pioglitazone with or without pre-treatment of LY335979 and/or Ko143.
(§3) A total of 24 mice were divided into four treatment groups (n = 6), where three groups received pre-treatment of efflux pump inhibitors (P-gp inhibitor LY335979, BCRP inhibitor Ko143, and a combination of LY335979 + Ko143) and one group received vehicle pre-treatment as a control. All test compounds (pioglitazone, LY335979, and Ko143) were dissolved in Milli-Q water using 1% DMSO as co-solvent. Pre-treatments of LY335979 (25 mg/kg), Ko143 (5 mg/kg) or a combination of both were given in a single intra-peritoneal (i.p.) injection 30 minutes before pioglitazone administration (i.p. injection, 30 mg/kg). […] Following another 30 minutes after pioglitazone administration, all mice were sacrificed by CO2 euthanasia and their blood samples were collected via cardiac puncture into Eppendorf tubes supplemented with heparin. Transcardial perfusion with saline was then performed on the sacrificed mice to remove traces of blood from organs before the whole brain tissues were harvested. All biological samples were kept on ice immediately after collection. […]

[2] = test system: P-gp and BCRP drug efflux transporters at the blood-brain-barrier; test: as above
Method: as §1, §2, §3

[3] = set-up: method as in PMID 21819568; settings: monkeys; cited from earlier work
[4] = rats, dogs, and monkeys; cited from earlier work
P-gp = test system: P-gp; set-up: method as in PMID 10820137; settings: 25 mg/kg; mice; cited from earlier work

brain AUC0–∞ / brain exposure higher than after racemic pioglitazone (in vivo; mouse): 76% | brain AUC0–∞ of pioglitazone (in vivo; mouse, po): 40 µg·h/mL | brain Cmax of pioglitazone (in vivo; mouse, po): 5070 ± 380 ng/mL | peak time (Tmax) of plasma pioglitazone (in vivo; mouse, po): 1 h | plasma AUC0–∞ of pioglitazone (in vivo; mouse, po): 274 µg·h/mL | plasma concentration maximum (Cmax) of pioglitazone (in vivo; mouse, po): 39920 ± 6200 ng/mL
Compound: CCc1ccc(CCOc2ccc(C[C@H]3SC(=O)NC3=O)cc2)nc1 (single isomer, unassigned) [(+)-pioglitazone]
treatment effect on extracellular amyloid-β42 on co-administration of PPARγ selective blocker (T007) (CHO-APP695 cells; 10 μM each): nullified | effect on increase in extracellular amyloid-β42 (CHO-APP695 cells): reduced significantly

Compound: COc1ccc2c3c([nH]c2c1)[C@H](CC(C)C)N1C(=O)[C@H](CCC(=O)OC(C)(C)C)NC(=O)[C@@H]1C3 [Ko143]
inhibition of BCRP (BCRP): 50%

Compound: CCc1ccc(CCOc2ccc(CC3SC(=O)NC3=O)cc2)nc1 (stereo not drawn) [pioglitazone, Pioglitazone]
Kp at 30 min [1]: 0.107 ± 0.0125 | transporter substrate status ([2]; mouse, in vivo): substrate of P-gp | pioglitazone brain-to-plasma concentration ratio ([2]; vehicle pre-treatment (control), pioglitazone 30 mg/kg i.p., 30 minutes after pioglitazone, n = 6): 10.65% | AUC(0-inf) (in vivo; C57BL/6, mouse, po): 262 µg·h/mL | Cmax (in vivo; C57BL/6, mouse, po): 53500 ± 8070 ng/mL | Tmax (in vivo; C57BL/6, mouse, po): 1 h | brain AUC0–∞ of pioglitazone (in vivo; C57BL/6, mouse, po): 22.7 µg·h/mL | brain Cmax of pioglitazone (in vivo; C57BL/6, mouse, po): 4880 ± 340 ng/mL | effect on increase in extracellular amyloid-β42 (CHO-APP695 cells): reduced significantly | cerebral spinal fluid (CSF) concentration as % of plasma concentrations [3]: less than 3% | share of serum pioglitazone found in the CSF [4]: approximately 18%

Compound: LY335979
inhibition of P-gp (P-gp): 50%
